This assay deals with U87MG xenograft-bearing NOD/SCID mice. The assay is described as follows: Ex vivo biodistribution in U87MG xenograft model. Particulars: single i.v. dose of atezolizumab 20 mg/kg, 24 h before [^18F]AlF-NOTA-PCP2. Also on record: species or system mouse.

For “atezolizumab: anti-PD-L1 antibody used for blockade, 20 mg/kg”, the “decrease in tracer uptake in U87MG tumors” value worked out at 92.2%.
